Source: patent publication US20260234161A1, “RIFABUTIN ANALOGS FOR THE TREATMENT OF BACTERIAL DISEASES” (BIOVERSYS AG, priority 2023, published 2026)
Converted amounts (≈) assume the structure as drawn.

What was measured:
Type in all cases: cell-based
[1] = test system: A. baumannii (HUMC1 strain); assay: MIC by broth microdilution, A. baumannii (RPMI + 10% FCS); settings: Acinetobacter baumannii; HUMC1 strain; RPMI medium + 10% FCS; 35° C., 20 hours; read-out: MIC A. baumannii
Method: (§1) MIC values were determined by broth microdilution method according to the CLSI guidelines with the following exceptions: MIC against A. baumannii was performed in RPMI medium supplemented with 10% FCS and MIC against M. abscessus was performed in Middlebrook 7H9 broth supplemented with Middlebrook ADC growth supplement (10%; see column “M. abscessus 7H9”). MIC forM abscessus was determined a second time in standard cation adjusted Mueller Hinton broth without growth supplement (see colum “M. abscessus MH”). All other MIC were performed in standard cation adjusted Mueller Hinton broth, supplemented with Middlebrook ADC growth supplement (5%) for the slow growing mycobacteria (M. xenopi, M. kansasii and M. avium).
(§2) The following procedure applies to all species tested, except forM xenopi. From a fresh culture plate (from overnight to several days depending on the bacteria), cells were resuspended in 0.9% (w/v) saline solution and bacterial inoculum was prepared in the respective testing medium with 5×10^5 CFU/mL. For M. xenopi, the inoculum was prepared from a fresh liquid culture (7H9+ADC). The appropriate volumes of a 10 mg/mL compound solution were directly dispensed in the 96-well assay plate using a digital dispenser to create two-fold dilution series from 32 to 0.002 μg/mL final concentration for A. baumannii and S. aureus; from 16 to 0.016 μg/mL for M. abscessus and M. avium; and from 1 to 6×10^−5 μg/mL for M. kansasii and M. xenopi. 100 μL of bacterial suspension was finally added to the compounds. Plates were covered and incubated without shaking at 35° C. for 20 hours for A. baumanii and S. aureus; at 30° C. for 4 days for M. abscessus; and at 37° C. for 7 days (at least) for M. kansasii (covered with aluminum foil to avoid light exposure), M. avium and M. xenopi. Every experiment contained an antibiotic as quality control. MIC was determined visually as the lowest concentration of a compound that prevents visible growth of the bacteria.
(§3) The in vitro activity of compounds described herein was determined against S. aureus (UAMS-1625 strain), A. baumannii (HUMC1 strain), M. abscessus (ATCC 19977), M. kansasii (ATCC 12478), M. avium (ATCC 25291), and M. xenopi (ATCC 19250).

[2] = test system: M. abscessus (ATCC 19977); assay: MIC by broth microdilution, M. abscessus in cation adjusted Mueller Hinton broth; settings: Mycobacteroides abscessus, ATCC19977, 96 h; ATCC 19977; cation adjusted Mueller Hinton broth without growth supplement; 30° C., 4 days; read-out: MIC M. abscessus MH
Method: as §1, §2, §3

[3] = test system: S. aureus (UAMS-1625 strain); assay: MIC by broth microdilution, S. aureus; settings: Staphylococcus aureus, 20 h, read-out: MIC S. aureus
Method: as §1, §2, §3

Structure (SMILES) | MIC [1] | MIC [2] | MIC [3]
CO[C@H]1/C=C/O[C@@]2(C)Oc3c(C)c(O)c4c(c3C2=O)C2=NC3(CCN(CC(C)C)CC3)NC2=C(NC(=O)/C(C)=C\C=C\[C@H](C)[C@H](O)[C@@H](C)[C@@H](O)[C@@H](C)[C@H](OC(=O)N2CCCC3(CCN(C)CC3)C2)[C@@H]1C)C4=O [Compound 20] | ≤ 0.016 µg/mL | 1 µg/mL (≈ 1 µM) | 0.06 µg/mL (≈ 0.06 µM)
CO[C@H]1/C=C/O[C@@]2(C)Oc3c(C)c(O)c4c(c3C2=O)C2=NC3(CCN(CC(C)C)CC3)NC2=C(NC(=O)/C(C)=C\C=C\[C@H](C)[C@H](O)[C@@H](C)[C@@H](O)[C@@H](C)[C@H](OC(=O)N2CCOC3(CCN(C)CC3)C2)[C@@H]1C)C4=O [Compound 24] | ≤ 0.016 µg/mL | 2 µg/mL (≈ 2 µM) | 0.06 µg/mL (≈ 0.0599 µM)
CO[C@H]1/C=C/O[C@@]2(C)Oc3c(C)c(O)c4c(c3C2=O)C2=NC3(CCN(CC(C)C)CC3)NC2=C(NC(=O)/C(C)=C\C=C\[C@H](C)[C@H](O)[C@@H](C)[C@@H](O)[C@@H](C)[C@H](OC(=O)N2CCN3CCCC3C2)[C@@H]1C)C4=O (stereo partly drawn) [Compound 25] | ≤ 0.016 µg/mL | 2 µg/mL (≈ 2.09 µM) | 0.03 µg/mL (≈ 0.0313 µM)
CO[C@H]1/C=C/O[C@@]2(C)Oc3c(C)c(O)c4c(c3C2=O)C2=NC3(CCN(CC(C)C)CC3)NC2=C(NC(=O)/C(C)=C\C=C\[C@H](C)[C@H](O)[C@@H](C)[C@@H](O)[C@@H](C)[C@H](OC(=O)NC2CCN(CC3CCCCC3)CC2)[C@@H]1C)C4=O [Compound 29] | ≤ 0.016 µg/mL | 0.25 µg/mL (≈ 0.243 µM) | 0.125 µg/mL (≈ 0.122 µM)
CO[C@H]1/C=C/O[C@@]2(C)Oc3c(C)c(O)c4c(c3C2=O)C2=NC3(CCN(CC(C)C)CC3)NC2=C(NC(=O)/C(C)=C\C=C\[C@H](C)[C@H](O)[C@@H](C)[C@@H](O)[C@@H](C)[C@H](OC(=O)N2CC3CC2CN3Cc2ccccc2)[C@@H]1C)C4=O [Compound 32] | 0.03 µg/mL | 0.5 µg/mL (≈ 0.491 µM) | 0.25 µg/mL (≈ 0.245 µM)
CO[C@H]1/C=C/O[C@@]2(C)Oc3c(C)c(O)c4c(c3C2=O)C2=NC3(CCN(CC(C)C)CC3)NC2=C(NC(=O)/C(C)=C\C=C\[C@H](C)[C@H](O)[C@@H](C)[C@@H](O)[C@@H](C)[C@H](OC(=O)N2CCC3(CCN(CC5CCCCC5)C3)C2)[C@@H]1C)C4=O (stereo partly drawn) [Compound 36] | 0.06 µg/mL | 0.125 µg/mL (≈ 0.119 µM) | 0.25 µg/mL (≈ 0.237 µM)
CO[C@H]1/C=C/O[C@@]2(C)Oc3c(C)c(O)c4c(c3C2=O)C2=NC3(CCN(CC(C)C)CC3)NC2=C(NC(=O)/C(C)=C\C=C\[C@H](C)[C@H](O)[C@@H](C)[C@@H](O)[C@@H](C)[C@H](OC(=O)N2CCN(Cc3nccn3C)CC2)[C@@H]1C)C4=O [Compound 37] | ≤ 0.016 µg/mL | 2 µg/mL (≈ 1.98 µM) | 0.03 µg/mL (≈ 0.0297 µM)
CO[C@H]1/C=C/O[C@@]2(C)Oc3c(C)c(O)c4c(c3C2=O)C2=NC3(CCN(CC(C)C)CC3)NC2=C(NC(=O)/C(C)=C\C=C\[C@H](C)[C@H](O)[C@@H](C)[C@@H](O)[C@@H](C)[C@H](OC(=O)N2CCN(Cc3c(C)noc3C)CC2)[C@@H]1C)C4=O [Compound 38] | ≤ 0.016 µg/mL | 1 µg/mL (≈ 0.974 µM) | 0.125 µg/mL (≈ 0.122 µM)
CO[C@H]1/C=C/O[C@@]2(C)Oc3c(C)c(O)c4c(c3C2=O)C2=NC3(CCN(CC(C)C)CC3)NC2=C(NC(=O)/C(C)=C\C=C\[C@H](C)[C@H](O)[C@@H](C)[C@@H](O)[C@@H](C)[C@H](OC(=O)N2CCCN(CC3CCCCC3)CC2)[C@@H]1C)C4=O [Compound 41] | 0.06 µg/mL | 0.125 µg/mL (≈ 0.122 µM) | 1 µg/mL (≈ 0.973 µM)
CO[C@H]1/C=C/O[C@@]2(C)Oc3c(C)c(O)c4c(c3C2=O)C2=NC3(CCN(CC(C)C)CC3)NC2=C(NC(=O)/C(C)=C\C=C\[C@H](C)[C@H](O)[C@@H](C)[C@@H](O)[C@@H](C)[C@H](OC(=O)N2CCN(CCO)CC2)[C@@H]1C)C4=O [Compound 43] | ≤ 0.016 µg/mL | 8 µg/mL (≈ 8.32 µM) | 0.06 µg/mL (≈ 0.0624 µM)
CO[C@H]1/C=C/O[C@@]2(C)Oc3c(C)c(O)c4c(c3C2=O)C2=NC3(CCN(CC(C)C)CC3)NC2=C(NC(=O)/C(C)=C\C=C\[C@H](C)[C@H](O)[C@@H](C)[C@@H](O)[C@@H](C)[C@H](OC(=O)N2CCN(CCOCCO)CC2)[C@@H]1C)C4=O [Compound 44] | ≤ 0.016 µg/mL | 4 µg/mL (≈ 3.98 µM) | 0.03 µg/mL (≈ 0.0298 µM)
